Laboratory results taken from patent publication US8173131B2, “Compositions and methods for modulating RSV infection and immunity” (PerkinElmer Health Sciences, Inc., priority 2000, dated 2012).
Like-named read-outs stand apart in the source and are kept apart here.

What was measured:
[1] = test system: G glycoprotein binding to 293-CX3CR1 cells; set-up: species or system human; conditions: for percent staining of G glycoprotein on CX3CR1-293 cells in the presence of peptide: 10 nM G glycoprotein, 84% without peptide, FIG. 1
Method: All binding studies were done on ice and either G glycoprotein or human Fkn (R&D Diagnostics, Minneapolis, Minn.) were diluted between 1 nM-100 nM in PBS (GIBCO) containing 1% bovine serum albumin (Sigma) and incubated with the 293-CX3CR1 cells or 293 control cells for 30 min at 4° C. […] Without washing, 100 pM of either Fkn or G glycoprotein was added and incubated for 30 min at 4° C. The cells were washed, blocked with FcγRIII blocking antibody (HB197) for 30 min on ice, washed and stained as appropriate with either an anti-G glycoprotein monoclonal antibody cocktail (132-5B, 132-5G, 130-2G, 232-IF) or a biotinylated anti-G glycoprotein monoclonal antibody cocktail (130-2G, 131-2G) or anti-Fkn monoclonal antibody (51637.11; R&D Diagnostics). Concentrations of 1 μg of anti-G glycoprotein monoclonal antibody (131-2G)^34, rabbit anti-CX3CR1 sera^33, and anti-CX3CR1 monoclonal antibody containing 10 μg/ml heparin were used in all experiments. […] Staining was detected with absorbed FITC-goat anti-mouse (H & L chain) monoclonal antibody (PharMingen, San Diego, Calif.) or streptavidin-PE (PharMingen) using flow cytometry (FACScan, Becton-Dickinson, Mountain View, Calif.). A 76 amino acid ^125I-Fkn polypeptide comprising the […] (NEN, Boston, Mass.) was used in radioligand studies^33. As a control, the void volume following purified G glycoprotein passaged over an anti-G glycoprotein antibody (130-2G) affinity column was examined by flow cytometry for binding to either 293 or 293-CX3CR1 cells.
(§1) For peptide inhibition studies, a series of G glycoprotein peptides were identified in the amino acid sequence of the A2 strain of RSV (GENBANK, attachment protein locus 1912305, Table 4). The peptides were synthesized using a simultaneous, multiple solid-phase peptide synthesis method on a peptide synthesizer (Perkin-Elmer Applied Biosystems, Berkeley, Calif.), and tested for homogeneity by reverse-phase liquid chromatography and capillary electrophoresis (www.biotech.cdc.gov/protein/methods). Inhibition assays were performed as described for the binding studies above.
(§2) To determine if G glycoprotein bound 293-CX3CR1 cells via CX3CR1, the ability of four reagents (anti-CX3CR1 rabbit antiserum, anti-CX3CR1 monoclonal antibody (2A9-1), Fkn and a 76 amino acid 125-I-Fkn polypeptide containing the CX3C domain) that bind to CX3CR1 to block G glycoprotein binding to 293-CX3CR1 cells was examined. In addition, to determine if binding of G glycoprotein to 293-CX3CR1 cells was dependent upon the CX3C motif, G glycoprotein peptides with a single residue insertion (Δ+1) or deletion (Δ−1) in the CX3C motif and also peptides that lacked or included the CX3C motif (Table 4) were generated. This panel of peptides was analyzed for their ability to block G glycoprotein or Fkn binding to 293-CX3CR1 cells.
(§3) Inhibition of Fkn and G glycoprotein binding to 293-CX3CR1 cells by treatment with monoclonal antibodies to G glycoprotein or CX3CR1, or treatment with G glycoprotein, Fkn, or G glycoprotein peptides in the presence or absence of heparin as described in Methods. […] The concentration of G glycoprotein was estimated using a molecular weight of 90 kD.

RSV = RSV plaque reduction assay on Vero cells (Example 1); type: cell-based, RSV/A2
Method: Dilutions of Fkn (R&D systems), SDF-1 α (R&D systems), G glycoprotein, heparin (Sigma), G glycoprotein peptides and anti-CX3CR1 antibody were made in serum-free Dulbecco's Modified Eagle's Media (DMEM; GIBCO) containing 1% BSA (Sigma) and preincubated with the Vero cells for 1 h at 37° C. 50 μg of anti-CX3CR1 antibody or heat-inactivated (56° C., 30 min) normal rabbit sera (control) were used in all experiments. […] Dilutions of RSV were made in serum-free DMEM (GIBCO) and added to pretreated Vero cells for 2 h at 37° C. Following virus infection, DMEM (GIBCO) containing 10% FBS (Hyclone, Logan, Utah) was added to the wells. Plaques were enumerated using immunostaining for F and G glycoproteins using biotinylated monoclonal antibodies 131-2A (anti-F glycoprotein) and 130-2G (anti-G glycoprotein) as described^45.
RSV plaque reduction following treatment with G glycoprotein, Fkn, G glycoprotein peptides, anti-CX3CR1 antibody, SDF-1-α and/or heparin as described in Methods. Percent inhibition was determined from the mean plaque forming units (pfu) of treated Vero cells over saline-treated Vero cells using a dilution of RSV that would produce 40-80 pfu. p-values were determined using unpaired two-tailed analysis where p<0.05 is significant. The concentration of G glycoprotein was estimated using a molecular weight of 90 kD.

[2] = target: T1, Fkn binding to 293-CX3CR1 cells (Homo sapiens, UniProt P49238); conditions: no heparin
T1 construct: host or cells: HEK 293 cells stably transfected with CX3CR1
Method: All binding studies were done on ice and either G glycoprotein or human Fkn (R&D Diagnostics, Minneapolis, Minn.) were diluted between 1 nM-100 nM in PBS (GIBCO) containing 1% bovine serum albumin (Sigma) and incubated with the 293-CX3CR1 cells or 293 control cells for 30 min at 4° C. […] For inhibition studies, 100 pM-1 μM human Fkn or G glycoprotein was preincubated with the cells for 30 min at 4° C. Without washing, 100 pM of either Fkn or G glycoprotein was added and incubated for 30 min at 4° C. The cells were washed, blocked with FcγRIII blocking antibody (HB197) for 30 min on ice, washed and stained as appropriate with either an anti-G glycoprotein monoclonal antibody cocktail (132-5B, 132-5G, 130-2G, 232-IF) or a biotinylated anti-G glycoprotein monoclonal antibody cocktail (130-2G, 131-2G) or anti-Fkn monoclonal antibody (51637.11; R&D Diagnostics). Concentrations of 1 μg of anti-G glycoprotein monoclonal antibody (131-2G)^34, rabbit anti-CX3CR1 sera^33, and anti-CX3CR1 monoclonal antibody containing 10 μg/ml heparin were used in all experiments. […] Staining was detected with absorbed FITC-goat anti-mouse (H & L chain) monoclonal antibody (PharMingen, San Diego, Calif.) or streptavidin-PE (PharMingen) using flow cytometry (FACScan, Becton-Dickinson, Mountain View, Calif.). A 76 amino acid ^125I-Fkn polypeptide comprising the […] (NEN, Boston, Mass.) was used in radioligand studies^33. As a control, the void volume following purified G glycoprotein passaged over an anti-G glycoprotein antibody (130-2G) affinity column was examined by flow cytometry for binding to either 293 or 293-CX3CR1 cells.
as §1, §2, §3

T1 sequence (P49238 whole entry): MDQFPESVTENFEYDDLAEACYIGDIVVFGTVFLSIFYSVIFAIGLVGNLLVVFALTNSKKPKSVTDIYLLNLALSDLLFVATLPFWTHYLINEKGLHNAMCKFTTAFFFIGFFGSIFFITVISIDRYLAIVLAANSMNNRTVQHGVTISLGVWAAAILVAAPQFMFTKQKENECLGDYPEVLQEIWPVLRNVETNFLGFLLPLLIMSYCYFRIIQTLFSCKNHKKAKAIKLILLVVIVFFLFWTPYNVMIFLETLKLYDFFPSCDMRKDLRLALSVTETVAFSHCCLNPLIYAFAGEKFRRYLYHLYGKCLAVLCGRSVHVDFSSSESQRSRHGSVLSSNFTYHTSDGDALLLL

Molecule: Fkn: CX3C chemokine fractalkine (R&D), ligand of CX3CR1 [reference compound]
- Range of Inhibition (%) of G glycoprotein binding ([1]; heparin 5 μg/ml + Fractalkine 10 nM): 85-98%
- Range of Inhibition (%) of G glycoprotein binding ([1]; inhibitor 100 pM, no heparin): 2-5%
- Range of Inhibition (%) of G glycoprotein binding ([1]; inhibitor 10 nM, no heparin): 8-15%
- Range of Inhibition (%) of G glycoprotein binding ([1]; inhibitor 1 μM, no heparin): 20-34%
- plaque inhibition (%) (RSV; 100 pM): 0%
- plaque inhibition (%) (RSV; 1 nM): 31%
- plaque inhibition (%) (RSV; 10 nM): 80%
- plaque inhibition (%) (RSV; heparin 5 μg/ml + Fkn 10 nM): 97%

Molecule: NKKPGKKTTTKP [RT34]
- Range of Inhibition (%) of Fkn binding ([2]; inhibitor 1 μM): 6-14%
- Range of Inhibition (%) of G glycoprotein binding ([1]; inhibitor 1 μM, no heparin): 4-18%
- plaque inhibition (%) (RSV; 1 μM): 6%

Molecule: TCWACKRIPNK (TCWAIACKRIPNK) [Δ − 1]
- Range of Inhibition (%) of Fkn binding ([2]; inhibitor 1 μM): 0-4%
- percent staining of G glycoprotein on CX3CR1-293 cells in the presence of peptide [1]: 73%
- Range of Inhibition (%) of G glycoprotein binding ([1]; inhibitor 1 μM, no heparin): 8-12%
- plaque inhibition (%) (RSV; 1 μM): 0%

Molecule: TCWAIACKRIPNK [Δ + 1]
- Range of Inhibition (%) of Fkn binding ([2]; inhibitor 1 μM): 0-8%
- percent staining of G glycoprotein on CX3CR1-293 cells in the presence of peptide [1]: 65%
- Range of Inhibition (%) of G glycoprotein binding ([1]; inhibitor 1 μM, no heparin): 16-22%
- plaque inhibition (%) (RSV; 1 μM): 30%

Molecule: TCWAICKRIPNK [RT33]
- Range of Inhibition (%) of Fkn binding ([2]; inhibitor 1 μM): 18-27%
- Range of Inhibition (%) of G glycoprotein binding ([1]; heparin 5 μg/ml + peptide 1 μM): 85-94%
- Range of Inhibition (%) of G glycoprotein binding ([1]; inhibitor 1 μM, no heparin): 35-42%
- plaque inhibition (%) (RSV; 1 μM): 71%
- plaque reduction by peptide alone (RSV; concentration not stated): 16%
- plaque inhibition (%) (RSV; heparin 5 μg/ml + peptide 1 μM): 92%

Molecule: VPCSICSNNPTC [RT32]
- Range of Inhibition (%) of Fkn binding ([2]; inhibitor 1 μM): 6-12%
- Range of Inhibition (%) of G glycoprotein binding ([1]; inhibitor 1 μM, no heparin): 8-14%
- plaque inhibition (%) (RSV; 1 μM): 2%

B1: G glycoprotein: purified G glycoprotein isolated from RSV/A2-infected Vero cells (protein)
chain: MSKNKDQRTAKTLERTWDTLNHLLFISSCLYKLNLKSVAQITLSILAMIISTSLIIAAIIFIASANHKVTPTTAIIQDATSQIKNTTPTYLTQNPQLGISPSNPSEITSQITTILASTTPGVKSTLQSTTVKTKNTTTTQTQPSKPTTKQRQNKPPSKPNNDFHFEVFNFVPCSICSNNPTCWAICKRIPNKKPGKKTTTKPTKKPTLKTTKKDPKPQTTKSKEVPTTKPTEEPTINTTKTNIITTLLTSNTTGNPELTSQMETFHSTSSEGNPSPSQVSTTSEYPSQPSSPPNTPRQ
- Range of Inhibition (%) of Fkn binding ([2]; inhibitor 100 pM): 5-8%
- Range of Inhibition (%) of Fkn binding ([2]; inhibitor 10 nM): 32-38%
- Range of Inhibition (%) of Fkn binding ([2]; inhibitor 1 μM): 50-58%
- plaque inhibition (%) (RSV; 1 nM): 0%
- plaque inhibition (%) (RSV; 10 nM): 49%
- plaque inhibition (%) (RSV; 100 nM): 61%
- plaque inhibition (%) (RSV; heparin 5 μg/ml + G glycoprotein 100 nM): 98%
